In US9802937B2, “Substituted pyrazolo{4,3-D}pyrimidines as kinase inhibitors” (ORIGENIS GMBH, priority 2011, dated 2017):

Molecular target: T1, SYK kinase (Homo sapiens, UniProt P43405)
T1 construct: purchased Invitrogen, Carlsbad
Experiment: SYK Assay (OMNIA KINASE ASSAY, SOX peptide fluorescence)
Type: biochemical
Details: apparent Ki calculated from the IC50 using the Cheng-Prusoff equation; 1 mM ATP, 30° C.; read-out: SYK Activities: Ki
Procedure: In the assay OMNIA® KINASE ASSAY by Invitrogen Corporation (Carlsbad) the effect of invention of a compound on the phosphorylation is determined by measurement of fluorescence intensity of a chelation-enhanced fluorophore called SOX. Upon phosphorylation of the peptide by the kinase of interest, Mg2+ is chelated to form a bridge between the SOX moiety and the phosphate group that is transferred to the specific tyrosine on the peptide. The fluorescence intensity is directly proportional to the amount of peptide phosphorylation.
To the wells of an 384 well small volume plate (Greiner, Frickenhausen) are added (i) the compound under test in 5% DMSO/distilled water (2 μl), (ii) 16 μl of the master mix containing ATP, DTT, Kinase Reaction Buffer, Omina Peptide Substrate Tyr 7 resulting in a final concentration of 1 mM ATP, 0.2 mM DTT and 10 μM Peptide Substrate.
The Master Mix and the assay plate was incubated to reaction temperature before the measurement (30° C.). The reaction was started with addition of (iii) 2 μl 4 μg/ml SYK kinase (Invitrogen, Carlsbad). During measurement fluorescence intensitiy readings were collected using a TECAN M1000 at a wavelength of λex 360/λem 485 nm every 30 s for 30 minutes. The reaction velocity was plotted versus the inhibitor concentration to determine the […] using XLFit 5.0 (IDBS, Guildford) to fit to a sigmoidal dose response curve, and the apparent Ki values were calculated from the IC50 using the Cheng-Prusoff equation (Cheng, Y.; Prusoff, W. H. Biochem. Pharmacol. 22, 3099-3108, 1973).

Ki | SMILES
< 10 nM | NC(=O)c1ccc(Nc2nc(-c3ccccc3)nc3cn[nH]c23)cc1 [Example #11, 4-((5-phenyl-1H-pyrazolo[4,3-d]pyrimidin-7-yl)amino)benzamide]
10 to 100 nM | N#Cc1ccc(Nc2nc(-c3ccccc3)nc3cn[nH]c23)cc1 [Example #12, 4-((5-phenyl-1H-pyrazolo[4,3-d]pyrimidin-7-yl)amino)benzonitrile]
10 to 100 nM | CN1CCC(c2nc(Nc3ccc(Cl)cc3)c3[nH]ncc3n2)CC1 [Example #29, N-(4-chlorophenyl)-5-(1-methylpiperidin-4-yl)-1H-pyrazolo[4,3-d]pyrimidin-7-amine]
< 10 nM | CN(C)c1ccc(Nc2nc(-c3ccc(N4CCCC4)nc3)nc3cn[nH]c23)cc1 [Example #31, N1,N1-dimethyl-N4-(5-(6-(pyrrolidin-1-yl)pyridin-3-yl)-1H-pyrazolo[4,3-d]pyrimidin-7-yl)benzene-1,4-diamine]
100 to 1000 nM | CN1CCC(c2nc(Nc3cc[nH]n3)c3[nH]ncc3n2)CC1 [Example #55, 5-(1-methylpiperidin-4-yl)-N-(1H-pyrazol-3-yl)-1H-pyrazolo[4,3-d]pyrimidin-7-amine]
100 to 1000 nM | CN1CCC(c2nc(Nc3ccc(N4CCCC4)cc3)c3[nH]ncc3n2)CC1 [Example #56, 5-(1-methylpiperidin-4-yl)-N-(4-(pyrrolidin-1-yl)phenyl)-1H-pyrazolo[4,3-d]pyrimidin-7-amine]
10 to 100 nM | CN1CCC(c2nc(Nc3cc(C4CC4)[nH]n3)c3[nH]ncc3n2)CC1 [Example #92, N-(5-cyclopropyl-1H-pyrazol-3-yl)-5-(1-methylpiperidin-4-yl)-1H-pyrazolo[4,3-d]pyrimidin-7-amine]
10 to 100 nM | CN1CCC(c2nc(Nc3cccc(O)c3)c3[nH]ncc3n2)CC1 [Example #94, 3-((5-(1-methylpiperidin-4-yl)-1H-pyrazolo[4,3-d]pyrimidin-7-yl)amino)phenol]
< 10 nM | c1ccc2sc(-c3nc(Nc4ccc5cn[nH]c5c4)c4[nH]ncc4n3)nc2c1 [Example #98, 5-(benzo[d]thiazol-2-yl)-N-(1H-indazol-6-yl)-1H-pyrazolo[4,3-d]pyrimidin-7-amine]
10 to 100 nM | c1cncc(-c2cccc(-c3nc(Nc4cc(C5CC5)[nH]n4)c4[nH]ncc4n3)c2)c1 [Example #100, N-(5-cyclopropyl-1H-pyrazol-3-yl)-5-(3-(pyridin-3-yl)phenyl)-1H-pyrazolo[4,3-d]pyrimidin-7-amine]
10 to 100 nM | c1cncc(-c2cccc(-c3nc(Nc4ccc5cn[nH]c5c4)c4[nH]ncc4n3)c2)c1 [Example #104, N-(1H-indazol-6-yl)-5-(3-(pyridin-3-yl)phenyl)-1H-pyrazolo[4,3-d]pyrimidin-7-amine]
10 to 100 nM | CN1CCN(c2ccc(Nc3nc(-c4ccccc4O)nc4cn[nH]c34)cc2)CC1 [Example #105, 2-(7-((4-(4-methylpiperazin-1-yl)phenyl)amino)-1H-pyrazolo[4,3-d]pyrimidin-5-yl)phenol]
10 to 100 nM | CN1CCN(c2ccc(Nc3nc(-c4cccc(N5CCOCC5)c4)nc4cn[nH]c34)cc2)CC1 [Example #106, N-(4-(4-methylpiperazin-1-yl)phenyl)-5-(3-morpholinophenyl)-1H-pyrazolo[4,3-d]pyrimidin-7-amine]
10 to 100 nM | COc1ccccc1-c1nc(Nc2ccc(N3CCOCC3)cc2)c2[nH]ncc2n1 [Example #112, 5-(2-methoxyphenyl)-N-(4-morpholinophenyl)-1H-pyrazolo[4,3-d]pyrimidin-7-amine]

More lines, now with the values behind:

SMILES | Ki
c1ccc(-c2nc(Nc3ccc(N4CCCCC4)cc3)c3[nH]ncc3n2)cc1 [Example #3, 5-phenyl-N-(4-(piperidin-1-yl)phenyl)-1H-pyrazolo[4,3-d]pyrimidin-7-amine] | 10 to 100 nM
c1cc(-c2nc(Nc3ccc4[nH]ncc4c3)c3[nH]ncc3n2)ccn1 [Example #13, N-(1H-indazol-5-yl)-5-(pyridin-4-yl)-1H-pyrazolo[4,3-d]pyrimidin-7-amine] | 100 to 1000 nM
c1cc(-c2nc(Nc3ccc(N4CCOCC4)cc3)c3[nH]ncc3n2)ccn1 [Example #19, N-(4-morpholinophenyl)-5-(pyridin-4-yl)-1H-pyrazolo[4,3-d]pyrimidin-7-amine] | 10 to 100 nM
c1cc2cn[nH]c2cc1Nc1nc(-c2ccc(N3CCCC3)nc2)nc2cn[nH]c12 [Example #30, N-(1H-indazol-6-yl)-5-(6-(pyrrolidin-1-yl)pyridin-3-yl)-1H-pyrazolo[4,3-d]pyrimidin-7-amine] | < 10 nM
c1ccc(-c2nc(Nc3cc[nH]n3)c3[nH]ncc3n2)cc1 [Example #38, 5-phenyl-N-(1H-pyrazol-3-yl)-1H-pyrazolo[4,3-d]pyrimidin-7-amine] | 10 to 100 nM
c1ccc(-c2nc(Nc3ccc(N4CCCC4)cc3)c3[nH]ncc3n2)cc1 [Example #39, 5-phenyl-N-(4-(pyrrolidin-1-yl)phenyl)-1H-pyrazolo[4,3-d]pyrimidin-7-amine] | 100 to 1000 nM
CN1CCC(c2nc(Nc3ccc(N4CCOCC4)cc3)c3[nH]ncc3n2)CC1 [Example #52, 5-(1-methylpiperidin-4-yl)-N-(4-morpholinophenyl)-1H-pyrazolo[4,3-d]pyrimidin-7-amine] | 10 to 100 nM
CN1CCC(c2nc(Nc3ccc(N4CCN(C)CC4)cc3)c3[nH]ncc3n2)CC1 [Example #53, N-(4-(4-methylpiperazin-1-yl)phenyl)-5-(1-methylpiperidin-4-yl)-1H-pyrazolo[4,3-d]pyrimidin-7-amine] | 10 to 100 nM
CN1CCC(c2nc(Nc3ccc4c(c3)NC(=O)CO4)c3[nH]ncc3n2)CC1 [Example #54, 6-((5-(1-methylpiperidin-4-yl)-1H-pyrazolo[4,3-d]pyrimidin-7-yl)amino)-2H-benzo[b][1,4]oxazin-3(4H)-one] | < 10 nM
c1csc(-c2nc(Nc3cc(C4CC4)[nH]n3)c3[nH]ncc3n2)c1 [Example #90, N-(5-cyclopropyl-1H-pyrazol-3-yl)-5-(thiophen-2-yl)-1H-pyrazolo[4,3-d]pyrimidin-7-amine] | 10 to 100 nM
c1cncc(-c2cccc(-c3nc(Nc4ccc(N5CCOCC5)cc4)c4[nH]ncc4n3)c2)c1 [Example #102, N-(4-morpholinophenyl)-5-(3-(pyridin-3-yl)phenyl)-1H-pyrazolo[4,3-d]pyrimidin-7-amine] | 10 to 100 nM
c1cncc(-c2cccc(-c3nc(Nc4ccc5c(c4)NCCO5)c4[nH]ncc4n3)c2)c1 [Example #103, N-(5-(3-(pyridin-3-yl)phenyl)-1H-pyrazolo[4,3-d]pyrimidin-7-yl)-3,4-dihydro-2H-benzo[b][1,4]oxazin-6-amine] | 10 to 100 nM
COc1ccc(Nc2nc(-c3cccc(N4CCOCC4)c3)nc3cn[nH]c23)cc1OC [Example #107, N-(3,4-dimethoxyphenyl)-5-(3-morpholinophenyl)-1H-pyrazolo[4,3-d]pyrimidin-7-amine] | 10 to 100 nM
COc1ccccc1-c1nc(Nc2cc(C3CC3)[nH]n2)c2[nH]ncc2n1 [Example #113, N-(5-cyclopropyl-1H-pyrazol-3-yl)-5-(2-methoxyphenyl)-1H-pyrazolo[4,3-d]pyrimidin-7-amine] | 100 to 1000 nM
N[C@@H]1CCCC[C@H]1Nc1nc(-c2ccsc2)nc2cn[nH]c12 [Example #115, (1R,2R)—N-(5-Thiophen-3-yl-1H-pyrazolo[4,3-d]pyrimidin-7-yl)-cyclohexane-1,2-diamine] | 100 to 1000 nM
